Measured values published in BindingDB's records for doi:10.1021/jm1006148 (Sri International, 2010).

Target: Neuronal acetylcholine receptor subunit alpha-7 (Rattus norvegicus, UniProt Q05941)
Assay: Displacement of [3H]epibatidine from alpha7 nAChR in rat brain membranes after 2 hrs

Sequence of Neuronal acetylcholine receptor subunit alpha-7 (Q05941 whole entry): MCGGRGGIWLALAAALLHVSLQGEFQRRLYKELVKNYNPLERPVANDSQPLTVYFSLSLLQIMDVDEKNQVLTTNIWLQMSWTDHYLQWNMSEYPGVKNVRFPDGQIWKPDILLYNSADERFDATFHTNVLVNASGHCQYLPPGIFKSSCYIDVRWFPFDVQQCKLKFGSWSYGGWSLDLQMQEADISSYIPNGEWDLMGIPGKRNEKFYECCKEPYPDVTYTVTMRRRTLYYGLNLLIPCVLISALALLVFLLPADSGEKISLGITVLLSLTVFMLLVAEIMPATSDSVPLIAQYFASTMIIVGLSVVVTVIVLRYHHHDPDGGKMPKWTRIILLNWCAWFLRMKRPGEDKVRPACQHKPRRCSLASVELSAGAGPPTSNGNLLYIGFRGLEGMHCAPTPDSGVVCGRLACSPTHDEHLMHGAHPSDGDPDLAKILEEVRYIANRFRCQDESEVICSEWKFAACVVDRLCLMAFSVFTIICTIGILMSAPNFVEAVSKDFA

Compound: CN1C2CCCC1CC(N1C(=O)Cc3ccccc31)C2 (stereo unspecified) [1-(1-(9-methyl-9-azabicyclo[3.3.1]nonan-3-yl)indolin-2-one]
- Ki: > 100 µM
